What all share (assay type): functional, organism-based
Design in all cases: conc 20 uM

Test [1] concerns Mycobacteroides abscessus. The experiment in a line: (§1) Inhibition of mycobacterial growth using the resazurin microtitre cell viability assay (REMA), compounds at final concentration of 20 µM (2% v/v DMSO). Hits were classed as compounds that inhibited bacterial growth by 70% or more compared to drug-free controls. The settings on record: ATCC19977.
For test [2], the system named is Mycobacterium tuberculosis. The description is as §1. The settings on record: H37Rv.
In test [3] the test system is Mycobacterium intracellulare subsp. chimaera. The test is described as §1. Conditions: NCTC13781.

For 76 substances, Survival results are on record in ChEMBL document CHEMBL4665541, “Search for new therapeutic options for the uncommon pathogen Mycobacterium chimaera: an open drug discovery approach” (Lancet Microbe, 2021).

As for MMV001493, the Survival in test [1] is 128%; in test [2], 93.6%; in test [3], 106%.

In the case of MMV689028, the Survival was 121% in test [1], 121% in test [2] and 127% in test [3].

As to MMV688470, the Survival was 106% in test [1], 94.8% in test [2] and 95.7% in test [3].

As to MMV688361, the Survival in test [1] was 116%; in test [2], 92.9%; in test [3], 88.9%.

On to MMV016838, for which the Survival is 109% in test [1], 78.9% in test [2] and 91.7% in test [3].

For the substance MMV687254, the Survival was 113% in test [1], 106% in test [2] and 107% in test [3].

For the substance MMV687801, the Survival in test [1] is 114%; in test [2] it was 58.9%; in test [3], 31.5%.

As for MMV676442, the Survival was 123% in test [1], 86.8% in test [2] and 97.1% in test [3].

Take MMV595321: the Survival in test [1] was 117%; in test [2], 25.4%; in test [3], 98.2%.

For the substance MMV687800, the Survival is 109% in test [1], 6.34% in test [2] and 6.51% in test [3].

For MMV688771, the results for the Survival in test [1], in test [2] and in test [3] were 98.2%, 91.4% and 91.7%, respectively.

Take MMV688703: the Survival in test [1] is 108%; in test [2] it was 102%; in test [3] it was 103%.

Consider MMV002816, for which the Survival in test [1] is 112%; in test [2], 86.4%; in test [3] it was 102%.

Take MMV020982: the results for the Survival in test [1], in test [2] and in test [3] were 124%, 84.3% and 103%, respectively.

MMV687239: the Survival is 108% in test [1], 68.1% in test [2] and 97.5% in test [3].

As to MMV062221, the Survival was 114% in test [1], 103% in test [2] and 112% in test [3].

MMV689243: the Survival is 113% in test [1], 82.6% in test [2] and 110% in test [3].

For MMV688774, the Survival is 107% in test [1], 100% in test [2] and 79.3% in test [3].

Regarding MMV676057, the Survival is 109% in test [1], 109% in test [2] and 110% in test [3].

On to MMV688775, for which the Survival in test [1] was 15.1%; in test [2] it was 4.71%; in test [3] it was 1.46%.

Consider MMV688795, for which the Survival was 105% in test [1], 77.7% in test [2] and 105% in test [3].

MMV688179: the Survival in test [1] was 17.6%; in test [2] it was 1.64%; in test [3], 2.34%.

Take MMV028694: the Survival was 113% in test [1], 88.7% in test [2] and 91.4% in test [3].

MMV687776: the Survival is 124% in test [1], 90.5% in test [2] and 99.3% in test [3].

As to MMV688754, the Survival in test [1] was 109%; in test [2] it was 92.9%; in test [3] it was 103%.

As to MMV676597, the results for the Survival in test [1], in test [2] and in test [3] were 113%, 98% and 99.5%, respectively.

As for MMV007803, the Survival in test [1] is 101%; in test [2], 97.5%; in test [3], 105%.

Turning to MMV675995, the values for the Survival in test [1], in test [2] and in test [3] were 111%, 90.8% and 97.4%, respectively.

Regarding MMV688415, the Survival in test [1] was 101%; in test [2], 88.9%; in test [3], 97.2%.

Consider MMV688124, for which the results for the Survival in test [1], in test [2] and in test [3] were 116%, 94.7% and 107%, respectively.

For the substance MMV000016, the Survival in test [1] is 99.9%; in test [2], 127%; in test [3], 110%.

Take MMV659004: the results for the Survival in test [1], in test [2] and in test [3] were 112%, 6.84% and 100%, respectively.

As for MMV676186, the Survival in test [1] is 105%; in test [2] it was 94.5%; in test [3] it was 98.8%.

Regarding MMV1029203, the values for the Survival in test [1], in test [2] and in test [3] were 116%, 128% and 125%, respectively.

For the substance MMV688271, the Survival was 108% in test [1], 1.1% in test [2] and 3.73% in test [3].

In the case of MMV687145, the figures for the Survival in test [1], in test [2] and in test [3] were 108%, 42.6% and 130%, respectively.

On to MMV1019989, for which the Survival was 99% in test [1], 105% in test [2] and 107% in test [3].

As for MMV676161, the Survival is 114% in test [1], 80.2% in test [2] and 103% in test [3].

On to MMV676204, for which the Survival in test [1] is 107%; in test [2], 99.7%; in test [3], 101%.

As for MMV676512, the Survival was 100% in test [1], 6.01% in test [2] and 95.9% in test [3].

As for MMV688417, the Survival in test [1] is 104%; in test [2], 82.3%; in test [3], 106%.

For the substance MMV675993, the Survival in test [1] was 102%; in test [2], 92.9%; in test [3], 109%.

Consider MMV676048, for which the results for the Survival in test [1], in test [2] and in test [3] were 114%, 90.5% and 94.4%, respectively.

For MMV688943, the Survival was 112% in test [1], 89.7% in test [2] and 100% in test [3].

In the case of MMV658988, the Survival in test [1] is 101%; in test [2], 4.93%; in test [3] it was 74.9%.

Regarding MMV688955, the values for the Survival in test [1], in test [2] and in test [3] were 89.9%, 103% and 94.2%, respectively.

For the substance MMV012074, the Survival in test [1] is 110%; in test [2] it was 53.4%; in test [3] it was 88.4%.

Take MMV019993: the Survival in test [1] is 95.9%; in test [2] it was 97%; in test [3] it was 98.9%.

On to MMV688762, for which the Survival in test [1] is 121%; in test [2] it was 89%; in test [3] it was 96.2%.

On to MMV689709, for which the Survival was 114% in test [1], 97.3% in test [2] and 91.7% in test [3].

Turning to MMV688345, the Survival is 113% in test [1], 86% in test [2] and 86.9% in test [3].

Regarding MMV676474, the Survival is 99% in test [1], 60.1% in test [2] and 88.6% in test [3].

For MMV676269, the Survival was 111% in test [1], 88.8% in test [2] and 104% in test [3].

On to MMV020165, for which the results for the Survival in test [1], in test [2] and in test [3] were 106%, 82.1% and 98.7%, respectively.

Consider MMV085071, for which the Survival in test [1] was 110%; in test [2], 93.5%; in test [3] it was 86.4%.

Take MMV687765: the Survival in test [1] was 116%; in test [2] it was 26.4%; in test [3] it was 59%.

For MMV003152, the results for the Survival in test [1], in test [2] and in test [3] were 111%, 92.7% and 96.7%, respectively.

As to MMV658993, the Survival in test [1] is 101%; in test [2], 83.9%; in test [3], 100%.

On to MMV007920, for which the Survival in test [1] was 102%; in test [2], 98%; in test [3] it was 99.7%.

Turning to MMV676492, the Survival was 101% in test [1], 83.1% in test [2] and 97.8% in test [3].

On to MMV676584, for which the Survival in test [1] is 115%; in test [2], 66.8%; in test [3], 90.2%.

Turning to MMV023388, the values for the Survival in test [1], in test [2] and in test [3] were 90.4%, 99.3% and 98%, respectively.

In the case of MMV085210, the Survival in test [1] is 115%; in test [2] it was 82.8%; in test [3], 88.2%.

Turning to MMV688845, the Survival in test [1] was 24.1%; in test [2], 6.47%; in test [3] it was 1.95%.

For the substance MMV000858, the Survival in test [1] was 113%; in test [2], 105%; in test [3], 118%.

For the substance MMV675998, the results for the Survival in test [1], in test [2] and in test [3] were 117%, 89.7% and 94.7%, respectively.

MMV688936: the Survival is 106% in test [1], 82.6% in test [2] and 98.9% in test [3].

For MMV688122, the figures for the Survival in test [1], in test [2] and in test [3] were 111%, 2.87% and 96.7%, respectively.

In the case of MMV022478, the Survival is 13.3% in test [1], 3.81% in test [2] and 3.7% in test [3].

For MMV393144, the Survival is 103% in test [1], 92.6% in test [2] and 85.6% in test [3].

Regarding MMV020291, the figures for the Survival in test [1], in test [2] and in test [3] were 121%, 90.7% and 103%, respectively.

MMV023860: the figures for the Survival in test [1], in test [2] and in test [3] were 117%, 84.6% and 90.3%, respectively.

For MMV687700, the Survival is 107% in test [1], 84.1% in test [2] and 88% in test [3].

In the case of MMV676412, the Survival in test [1] is 105%; in test [2] it was 6.6%; in test [3] it was 92.8%.

For the substance MMV676382, the figures for the Survival in test [1], in test [2] and in test [3] were 122%, 88.4% and 99%, respectively.

For MMV688407, the Survival is 116% in test [1], 94% in test [2] and 106% in test [3].
